The source of these data is paper PMC9736855, “Discovery of 3-Amino-1H-pyrazole-Based Kinase Inhibitors to Illuminate the Understudied PCTAIRE Family” (International Journal of Molecular Sciences, 2022).

The target of one experiment is T1, ULK1 (Homo sapiens, UniProt O75385).
T1 construct: purchased in-house DSF panel (SGC Frankfurt)
T1 sequence (O75385 1-283): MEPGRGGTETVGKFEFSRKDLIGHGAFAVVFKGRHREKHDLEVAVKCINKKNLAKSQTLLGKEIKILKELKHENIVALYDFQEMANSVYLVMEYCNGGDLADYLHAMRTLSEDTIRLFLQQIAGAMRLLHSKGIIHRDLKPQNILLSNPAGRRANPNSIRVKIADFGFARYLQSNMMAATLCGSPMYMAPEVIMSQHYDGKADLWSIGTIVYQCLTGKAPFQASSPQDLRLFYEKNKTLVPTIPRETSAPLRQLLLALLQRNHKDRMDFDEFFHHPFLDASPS
In words: DSF. It is filed as binding. On the procedure: (§1) Measurements were performed in duplicates.

In a further experiment the target is T2, CLK1 (Homo sapiens, UniProt P49759).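 Note: compound tested at 10 µM with 2 µM protein.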
T2 construct: purchased in-house DSF panel (SGC Frankfurt)
The experiment in a line: DSF. It is filed as binding.

A further experiment deals with T3, GSG2 (Homo sapiens, UniProt Q8TF76).
T3 construct: purchased in-house DSF panel (SGC Frankfurt)
T3 sequence (Q8TF76 465-798): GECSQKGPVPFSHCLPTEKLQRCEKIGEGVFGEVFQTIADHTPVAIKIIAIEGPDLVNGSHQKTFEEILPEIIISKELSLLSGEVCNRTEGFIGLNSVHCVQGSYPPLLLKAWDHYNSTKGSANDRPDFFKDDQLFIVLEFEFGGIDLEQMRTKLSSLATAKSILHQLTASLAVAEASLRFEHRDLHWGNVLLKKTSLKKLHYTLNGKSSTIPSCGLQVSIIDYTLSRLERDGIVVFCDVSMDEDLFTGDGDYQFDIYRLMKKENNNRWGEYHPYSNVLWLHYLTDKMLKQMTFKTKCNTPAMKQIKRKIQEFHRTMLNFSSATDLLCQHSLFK
The experiment in a line: DSF. It is filed as binding.

The target in the next experiment is T4, CSNK1D (Homo sapiens, UniProt P48730).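 Note: compound tested at 10 µM with 2 µM protein.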
T4 construct: purchased in-house DSF panel (SGC Frankfurt)
T4 sequence (P48730 1-294): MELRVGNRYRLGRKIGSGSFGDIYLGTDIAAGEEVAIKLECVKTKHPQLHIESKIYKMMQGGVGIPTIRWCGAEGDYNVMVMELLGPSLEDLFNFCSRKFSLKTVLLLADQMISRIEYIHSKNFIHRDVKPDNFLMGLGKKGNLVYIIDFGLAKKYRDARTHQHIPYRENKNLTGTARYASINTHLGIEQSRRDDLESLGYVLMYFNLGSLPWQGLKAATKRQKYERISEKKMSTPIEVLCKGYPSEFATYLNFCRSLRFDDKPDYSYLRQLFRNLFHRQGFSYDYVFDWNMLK
In words: DSF. The class given is binding.

The target of a further experiment is T5, PIM3 (Homo sapiens, UniProt Q86V86).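 Note: compound tested at 10 µM with 2 µM protein.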
T5 construct: purchased in-house DSF panel (SGC Frankfurt)
In words: DSF. The class given is binding.

The test system of another experiment is HCT116-FUCCI cells. The experiment in a line: FUCCI cell cycle assay and viability assessment. It is filed as cell-based. The conditions noted are these: for effect on the cell cycle (FUCCI): 1, 5, 10 µM (milciclib 1, 10 µM); for effect on the cell cycle (FUCCI) / pyknosed nuclei: 24 h; for effect on cell count: 1, 5, 10 µM vs DMSO 0.1 %; for cells compared to the control: after 72 h, vs DMSO 0.1 %; for pyknosed nuclei: average. On the procedure:
This technology enables the detection of cell cycle states (G1, G2/M, or S phase) on a single cell level. Additionally, a viability assessment, as described by Tjaden et. al., was performed using Hoechst33342 as a nuclear marker. […] At 10 µM of the same compound, the pyknosed nuclei rate was even higher, on average 45% (Figure 9C). An increase in cells including a pyknosed nucleus indicate apoptotic cell death, due to typical morphological changes like DNA condensation. […] Milciclib is a published CDK2 inhibitor and was used as a reference compound [55]. […] At later time points, the G2/M phase arrest was no longer detectable (Table S7). This can be explained due to the increasing amount of apoptotic cells.
To validate the influence of the compounds on the cell cycle, a florescent ubiquitination-based cell cycle indicator (FUCCI) assay was performed as described previously. In Brief, HCT116-FUCCI cells, stably expressing the FUCCI system, introduced by the Sleeping Beauty transposon system, were seeded at a density of 1250 cells per well in a 384 well plate (Cell culture microplate, PS, f-bottom, µClear®, 781091, Greiner, Frickenhausen, Germany) in culture medium (50 µL per well) and stained additionally with 60 nM Hoechst33342 (Thermo Scientific). Fluorescence and cellular shape were measured before and after compound treatment for 72 h every 12 h using the CQ1 high-content confocal microscope (Yokogawa, Tokyo, Japan). Compounds were added directly to the cells at three different concentrations (1 µM, 5 µM and 10 µM). The following parameters were used for image acquisition: Ex 405 nm/Em 447/60 nm, 500ms, 50%; Ex 561 nm/Em 617/73 nm, 100 ms, 40%; Ex 488/Em 525/50 nm, 50 ms, 40%; Ex 640 nm/Em 685/40, 50 ms, 20 %; bright field, 300ms, 100% transmission, one centered field per well, 7 z stacks per well with 55 µm spacing. Analysis of images was performed using the CellPathfinder software (Yokogawa). The cell count was normalized against the cell count of cells treated with 0.1% DMSO. All normal gated cells were further classified in cells containing healthy, fragmented or pyknosed nuclei. […] Error bars show SEM of biological duplicates. All data can be found in Table S7.

The next experiment deals with T6, HIPK2 (Homo sapiens, UniProt Q9H2X6).
T6 construct: purchased in-house DSF panel (SGC Frankfurt)
The experiment in a line: DSF. The class given is binding. On the procedure: as §1

In the next experiment the target is T7, EPHA4 (Homo sapiens, UniProt P54764).
T7 construct: purchased in-house DSF panel (SGC Frankfurt)
T7 sequence (P54764 606-890): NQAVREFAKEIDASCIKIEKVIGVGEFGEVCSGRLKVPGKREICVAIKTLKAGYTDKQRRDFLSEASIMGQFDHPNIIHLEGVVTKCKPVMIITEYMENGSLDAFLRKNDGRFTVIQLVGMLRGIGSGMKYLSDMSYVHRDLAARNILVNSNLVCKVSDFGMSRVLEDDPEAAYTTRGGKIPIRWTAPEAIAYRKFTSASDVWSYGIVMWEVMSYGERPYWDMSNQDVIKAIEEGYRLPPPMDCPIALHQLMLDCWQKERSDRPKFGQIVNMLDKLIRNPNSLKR
In words: DSF. The class given is binding. As to the method: as §1

A further experiment addresses T8, NEK2 (Homo sapiens, UniProt P51955).
T8 construct: purchased in-house DSF panel (SGC Frankfurt)
T8 sequence (P51955 1-271): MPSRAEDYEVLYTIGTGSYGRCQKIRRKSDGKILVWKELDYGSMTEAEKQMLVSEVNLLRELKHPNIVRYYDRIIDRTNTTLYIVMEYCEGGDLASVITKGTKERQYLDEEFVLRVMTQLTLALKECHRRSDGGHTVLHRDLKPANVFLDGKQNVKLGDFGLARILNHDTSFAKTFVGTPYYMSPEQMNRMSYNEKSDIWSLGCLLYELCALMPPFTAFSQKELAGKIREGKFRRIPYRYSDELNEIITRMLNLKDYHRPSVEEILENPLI
In words: DSF. It is filed as binding. On the procedure:
as §1

Each structure is given as a SMILES string. Entries after “also recorded” stand apart in the source; their conditions may differ.

T2 sequence (P49759 148-484): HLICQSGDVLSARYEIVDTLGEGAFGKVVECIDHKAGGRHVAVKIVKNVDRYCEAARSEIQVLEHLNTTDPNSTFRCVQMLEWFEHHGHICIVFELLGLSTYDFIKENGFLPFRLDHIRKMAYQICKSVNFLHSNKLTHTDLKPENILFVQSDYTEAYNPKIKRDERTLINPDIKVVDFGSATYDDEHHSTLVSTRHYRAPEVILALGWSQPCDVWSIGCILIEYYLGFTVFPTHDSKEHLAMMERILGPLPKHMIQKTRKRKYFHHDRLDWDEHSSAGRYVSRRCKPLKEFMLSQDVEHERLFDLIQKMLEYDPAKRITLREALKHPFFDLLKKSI
T6 sequence (Q9H2X6 199-527): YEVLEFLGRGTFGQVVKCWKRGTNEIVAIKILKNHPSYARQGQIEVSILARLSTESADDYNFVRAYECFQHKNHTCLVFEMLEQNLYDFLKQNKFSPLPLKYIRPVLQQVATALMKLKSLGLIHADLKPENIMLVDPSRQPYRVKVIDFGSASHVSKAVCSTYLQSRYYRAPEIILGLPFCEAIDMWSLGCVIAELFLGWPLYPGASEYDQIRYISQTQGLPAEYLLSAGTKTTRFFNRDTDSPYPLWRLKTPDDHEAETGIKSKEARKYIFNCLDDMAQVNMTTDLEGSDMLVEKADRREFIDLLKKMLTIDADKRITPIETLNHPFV
Experimental for CLK1: (§2) Recombinant protein kinase domains with a concentration of 2 μM were mixed with a 10 μM compound solution in DMSO, 20 mM HEPES, pH 7.5, and 500 mM NaCl. SYPRO Orange (5000×, Invitrogen) was added as a fluorescence probe (1 µl per mL). Subsequently, temperature-dependent protein unfolding profiles were measured, using the QuantStudio™ 5 realtime PCR machine (Thermo Fisher, Waltham, MA, USA). […] The temperature was raised with a step rate of 3 °C per minute. Data points were analyzed with the internal software (Thermal Shift SoftwareTM Version 1.4, Thermo Fisher) using the Boltzmann equation to determine the inflection point of the transition curve [56]. Differences in melting temperature are given as ΔTm values in °C. Measurements were performed in duplicates.
Experimental for CSNK1D: as §2
Experimental for GSG2: as §2
Experimental for PIM3: as §2

`COC(=O)c1cc(Nc2ccnc(NCCOCCNC(=O)OC(C)(C)C)n2)[nH]n1` [21d, methyl 5-((2-((2-(2-((tert-butoxycarbonyl)amino)ethoxy)ethyl)amino)pyrimidin-4-yl)amino)-1H-pyrazole-3-carboxylate]: the “ΔTm ULK1” value on ULK1 amounted to 2.3 °C. In addition, the “ΔTm CLK1” value on CLK1 was 1.8 °C. At GSG2, the “ΔTm GSG2” value was 0.2 °C. Also, the “ΔTm CSNK1D” value on CSNK1D amounted to 0.2 °C. Also, at PIM3, the “ΔTm PIM3” value amounted to 0.0 °C.

Take `COC(=O)c1cc(Nc2ccnc(NCc3ccc(NC(=O)OC(C)(C)C)cc3)n2)[nH]n1` [21i, methyl 5-((2-((4-((tert-butoxycarbonyl)amino)benzyl)amino)pyrimidin-4-yl)amino)-1H-pyrazole-3-carboxylate]: the “ΔTm ULK1” value at ULK1 was determined as 2.7 °C. The “ΔTm CLK1” value on CLK1 stood at 1.3 °C. Moreover, on GSG2, the “ΔTm GSG2” value was -0.2 °C. Besides, the “ΔTm CSNK1D” value at CSNK1D was found to be 0.4 °C. The “ΔTm PIM3” value at PIM3 was -0.4 °C. For the same compound, in the experiment on HCT116-FUCCI cells, the “effect on the cell cycle (FUCCI)” value is on record as “accumulation of cells in G2/M phases”, the “effect on cell count” value is listed as “decreased the cell count” and the “cells compared to the control” value is “less than 50%”.

As for `CC(C)OC(=O)c1cc(Nc2ccnc(NCc3ccc(NC(=O)OC(C)(C)C)cc3)n2)n[nH]1` [42d, isopropyl 3-((2-((4-((tert-butoxycarbonyl)amino)benzyl)amino)pyrimidin-4-yl)amino)-1H-pyrazole-5-carboxylate], the “ΔTm HIPK2” value at HIPK2 was -0.2 °C. Besides, the “ΔTm EPHA4” value at EPHA4 was -0.1 °C. In addition, the “ΔTm NEK2” value on NEK2 was -1.4 °C. For the same compound, at CLK1, the “ΔTm CLK1” value is 0.0 °C. For the same compound, the “ΔTm GSG2” value on GSG2 is 0.5 °C. In addition, the “ΔTm CSNK1D” value on CSNK1D amounted to 0.8 °C. Besides, the “ΔTm PIM3” value at PIM3 was -1.1 °C. For the same compound, the “effect on the cell cycle (FUCCI)” value with HCT116-FUCCI cells was “accumulation of cells in G2/M phases”.

On to `CC(C)(C)OC(=O)Nc1ccc(CNc2nccc(Nc3cc(C(=O)OC(C)(C)C)[nH]n3)n2)cc1` [43d, tert-butyl 3-((2-((4-((tert-butoxycarbonyl)amino)benzyl)amino)pyrimidin-4-yl)amino)-1H-pyrazole-5-carboxylate], for which the “ΔTm HIPK2” value on HIPK2 stood at 0.1 °C. The “ΔTm EPHA4” value at EPHA4 was 0.0 °C. The “ΔTm NEK2” value at NEK2 is 2.0 °C. Also, on CLK1, the “ΔTm CLK1” value was -0.5 °C. For the same compound, the “ΔTm GSG2” value on GSG2 is -0.3 °C. On CSNK1D, the “ΔTm CSNK1D” value is 1.0 °C. Also, the “ΔTm PIM3” value on PIM3 is -1.6 °C. Further, in the experiment on HCT116-FUCCI cells (1 µM), the pyknosed nuclei was determined as 10%. Also, the pyknosed nuclei in the experiment with HCT116-FUCCI cells (10 µM) was 45%. Besides, in the experiment on HCT116-FUCCI cells, the “effect on the cell cycle (FUCCI)” value is on record as “G2/M phase cell cycle arrest; also recorded: accumulation of cells in G2/M phases”, the “effect on cell count” value was “decreased the cell count in a dose-dependent manner” and the “cells compared to the control” value is reported as “less than 50%”.

Regarding `N#CCc1ccc(Nc2nccc(Nc3cc(C4CC4)[nH]n3)n2)cc1` [compound 1, reference compound], the “ΔTm ULK1” value on ULK1 is 15.5 °C. For the same compound, the “ΔTm CLK1” value on CLK1 amounted to 12.2 °C. In addition, the “ΔTm GSG2” value at GSG2 turned out to be 2.9 °C. Also, the “ΔTm CSNK1D” value on CSNK1D is 3.1 °C. Besides, the “ΔTm PIM3” value at PIM3 worked out at 3.8 °C. Moreover, the “effect on the cell cycle (FUCCI)” value in the experiment with HCT116-FUCCI cells is “no effect on the cell cycle”.

Turning to `CN[C@@H]1C[C@H]2O[C@@](C)([C@@H]1OC)n1c3ccccc3c3c4c(c5c6ccccc6n2c5c31)C(=O)NC4` [staurosporine, reference compound], the “ΔTm ULK1” value on ULK1 came to 11.3 °C. In addition, at HIPK2, the “ΔTm HIPK2” value stood at 4.4 °C. Further, the “ΔTm EPHA4” value at EPHA4 turned out to be 6.2 °C. In addition, the “ΔTm NEK2” value on NEK2 was found to be 3.3 °C.
